Data reported in patent US20220024906A1, “COMPOUNDS AND COMPOSITIONS FOR TREATING CONDITIONS ASSOCIATED WITH STING ACTIVITY” (IFM Due, Inc., priority 2020, published 2022).

Biological target: T1, hSTING (Homo sapiens, UniProt Q86WV6, G230A/H232R/R293Q/R71H)
T1 construct: host or cells: THP1-Dual KO-IFNAR2 cells
Experiment: STING reporter assay (luciferase) in THP1-Dual KO-IFNAR2 cells stimulated with 2′3′cGAMP
Format: cell-based
Conditions: 15 μM 2′3′cGAMP transfected, 24 h, luciferase reporter activity
Description: STING pathway activation by the compounds described herein was measured using THP1-Dual™ cells (KO-IFNAR2).
THP1-Dual™ KO-IFNAR2 Cells (obtained from invivogen) were maintained in RPMI, 10% FCS, 5 ml P/S, 2 mM L-glut, 10 mM Hepes, and 1 mM sodium pyruvate. Compounds were spotted in empty 384 well tissue culture plates (Greiner 781182) by Echo for a final concentration of 0.0017-100 μM. Cells were plated into the TC plates at 40 μL per well, 2×10E6 cells/mL. For activation with STING ligand, 2′3′cGAMP (MW 718.38, obtained from Invivogen), was prepared in Optimem media.
The following solutions were prepared for each 1×384 plate: • Solution A: 2 mL Optimem with one of the following stimuli: • 60 μL of 10 mM 2′3′cGAMP→150 μM stock • Solution B: 2 mL Optimem with 60 μL Lipofectamine 2000→Incubate 5 min at RT
2 mL of solution A and 2 ml Solution B was mixed and incubated for 20 min at room temperature (RT). 20 μL of transfection solution (A+B) was added on top of the plated cells, with a final 2′3′cGAMP concentration of 15 μM. The plates were then centrifuged immediately at 340 g for 1 minute, after which they were incubated at 37° C., 5% CO2, >98% humidity for 24 h. Luciferase reporter activity was then measured. EC50 values were calculated by using standard methods known in the art.
Luciferase reporter assay: 10 μL of supernatant from the assay was transferred to white 384-plate with flat bottom and squared wells. One pouch of QUANTI-Luc™ Plus was dissolved in 25 mL of water. 100 μL of QLC Stabilizer per 25 mL of QUANTI-Luc™ Plus solution was added. 50 μL of QUANTI-Luc™ Plus/QLC solution per well was then added. Luminescence was measured on a Platereader (e.g., Spectramax I3X (Molecular Devices GF3637001)).
Luciferase reporter activity was then measured. EC50 values were calculated by using standard methods known in the art.

T1 sequence (Q86WV6 whole entry R71H/G230A/H232R/R293Q): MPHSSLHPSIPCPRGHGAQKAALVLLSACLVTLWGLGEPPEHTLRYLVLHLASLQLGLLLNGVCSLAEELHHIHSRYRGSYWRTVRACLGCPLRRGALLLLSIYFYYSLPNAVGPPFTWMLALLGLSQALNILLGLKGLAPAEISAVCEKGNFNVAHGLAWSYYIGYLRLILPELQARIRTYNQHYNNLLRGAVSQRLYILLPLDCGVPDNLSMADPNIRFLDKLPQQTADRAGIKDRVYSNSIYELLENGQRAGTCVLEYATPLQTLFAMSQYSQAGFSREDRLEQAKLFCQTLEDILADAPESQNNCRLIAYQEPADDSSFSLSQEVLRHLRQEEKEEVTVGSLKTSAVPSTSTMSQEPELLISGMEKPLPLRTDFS

Row | SMILES | EC50 [nM]
1 | CC(C)(Oc1ccccc1)C(=O)Nc1c[nH]c2cc(F)c(F)cc12 [Compound 102, N-(5,6-difluoro-1H-indol-3-yl)-2-methyl-2-phenoxypropanamide] | 5000 to 100000
2 | O=C(CCc1cn[nH]c1)Nc1c[nH]c2ccc(-c3cnn(-c4ccc(C(F)(F)F)cc4)c3)cc12 [Compound 140, 3-(1H-pyrazol-4-yl)-N-(5-(1-(4-(trifluoromethyl)phenyl)-1H-pyrazo1-4-yl)-1H-indol-3-yl)propanamide] | 200 to 1000
3 | CC(Oc1ccc(C(F)(F)F)cc1)C(=O)Nc1c[nH]c2cc(F)c(F)cc12 (centres unmarked) [Compound 131, N-(5,6-difluoro-1H-indol-3-yl)-2-(4-(trifluoromethyl)phenoxy)propanamide] | 1000 to 5000
4 | O=C(CCc1ccc(OC(F)(F)F)cc1)Nc1c[nH]c2cc(F)c(F)cc12 [Compound 104, N-(5,6-difluoro-1H-indol-3-yl)-3-(4-(trifluoromethoxy)phenyl)propanamide] | 200 to 1000
5 | Cn1ccc(CC(=O)Nc2c[nH]c3ccc(-c4cnn(-c5ccc(C(F)(F)F)cc5)c4)cc23)n1 [Compound 168, 2-(1-methyl-1H-pyrazol-3-yl)-N-(5-(1-(4-(trifluoromethyl)phenyl)-1H-pyrazol-4-yl)-1H-indol-3-yl)acetamide] | 200 to 1000
6 | O=C(CCc1nccs1)Nc1c[nH]c2ccc(-c3cnn(-c4ccc(C(F)(F)F)cc4)c3)cc12 [Compound 148, 3-(thiazol-2-yl)-N-(5-(1-(4-(trifluoromethyl)phenyl)-1H-pyrazol-4-yl)-1H-indol-3-yl)propanamide] | 200 to 1000
7 | COc1cccc(CCC(=O)Nc2c[nH]c3cc(F)c(F)cc23)n1 [Compound 108, N-(5,6-difluoro-1H-indol-3-yl)-3-(6-methoxypyridin-2-yl)propanamide] | 5000 to 100000
8 | O=C(CCN1CCOC1=O)Nc1c[nH]c2ccc(-c3cnn(-c4ccc(C(F)(F)F)cc4)c3)cc12 [Compound 167, 3-(2-oxooxazolidin-3-yl)-N-(5-(1-(4-(trifluoromethyl)phenyl)-1H-pyrazol-4-yl)-1H-indol-3-yl)propanamide] | 200 to 1000
9 | O=C(CCN1CCCC1=O)Nc1c[nH]c2ccc(-c3cnn(-c4ccc(C(F)(F)F)cc4)c3)cc12 [Compound 155, 3-(2-oxopyrrolidin-1-yl)-N-(5-(1-(4-(trifluoromethyl)phenyl)-1H-pyrazol-4-yl)-1H-indol-3-yl)propanamide] | 200 to 1000
10 | Cn1cnnc1CCC(=O)Nc1c[nH]c2ccc(-c3cnn(-c4ccc(C(F)(F)F)cc4)c3)cc12 [Compound 153, 3-(4-methyl-4H-1,2,4-triazol-3-yl)-N-(5-(1-(4-(trifluoromethyl)phenyl)-1H-pyrazol-4-yl)-1H-indol-3-yl)propanamide] | 1000 to 5000
11 | O=C(Nc1c[nH]c2ccc(-c3cnn(-c4ccc(C(F)(F)F)cc4)c3)cc12)[C@@H](O)C1CCCCC1 [Compound 152, (S)-2-cyclohexyl-2-hydroxy-N-(5-(1-(4-(trifluoromethyl)phenyl)-1H-pyrazol-4-yl)-1H-indol-3-yl)acetamide] | 1000 to 5000
12 | N#Cc1cc(CC(=O)Nc2c[nH]c3cc(F)c(F)cc23)ccn1 [Compound 107, 2-(2-cyanopyridin-4-yl)-N-(5,6-difluoro-1H-indol-3-yl)acetamide] | 1000 to 5000
13 | CCOc1cccc(CCC(=O)Nc2c[nH]c3cc(F)c(F)cc23)c1 [Compound 106, N-(5,6-difluoro-1H-indol-3-yl)-3-(3-ethoxyphenyl)propanamide] | 200 to 1000
14 | Cc1ccc(OCCC(=O)Nc2c[nH]c3cc(F)c(F)cc23)cc1 [Compound 120, N-(5,6-difluoro-1H-indol-3-yl)-3-(p-tolyloxy)propanamide] | 200 to 1000
15 | O=C(CN1CCOC1=O)Nc1c[nH]c2ccc(-c3cnn(-c4ccc(C(F)(F)F)cc4)c3)cc12 [Compound 161, 2-(2-oxooxazolidin-3-yl)-N-(5-(1-(4-(trifluoromethyl)phenyl)-1H-pyrazol-4-yl)-1H-indol-3-yl)acetamide] | 200 to 1000
16 | O=C(CC1CC(F)(F)C1)Nc1c[nH]c2ccc(-c3cnn(-c4ccc(C(F)(F)F)cc4)c3)cc12 [Compound 157, 2-(3,3-difluorocyclobutyl)-N-(5-(1-(4-(trifluoromethyl)phenyl)-1H-pyrazol-4-yl)-1H-indol-3-yl)acetamide] | 200 to 1000

Row | SMILES | EC50 [nM]
17 | O=C(Cc1cnc(N2CCC(F)(F)CC2)c(Cl)c1)Nc1c[nH]c2ccc(Br)cc12 [Compound 101, N-(5-bromo-1H-indol-3-yl)-2-(5-chloro-6-(4,4-difluoropiperidin-1-yl)pyridin-3-yl)acetamide] | 200 to 1000
18 | Cc1noc(C)c1CC(=O)Nc1c[nH]c2ccc(-c3cnn(-c4ccc(C(F)(F)F)cc4)c3)cc12 [Compound 160, 2-(3,5-dimethylisoxazol-4-yl)-N-(5-(1-(4-(trifluoromethyl)phenyl)-1H-pyrazol-4-yl)-1H-indol-3-yl)acetamide] | 1000 to 5000
19 | O=C(Cc1ncc(F)cn1)Nc1c[nH]c2ccc(-c3cnn(-c4ccc(C(F)(F)F)cc4)c3)cc12 [Compound 145, 2-(5-fluoropyrimidin-2-yl)-N-(5-(1-(4-(trifluoromethyl)phenyl)-1H-pyrazol-4-yl)-1H-indol-3-yl)acetamide] | 200 to 1000
20 | Cc1nc(CC(=O)Nc2c[nH]c3ccc(-c4cnn(-c5ccc(C(F)(F)F)cc5)c4)cc23)n[nH]1 [Compound 150, 2-(5-methyl-1H-1,2,4-triazol-3-yl)-N-(5-(1-(4-(trifluoromethyl)phenyl)-1H-pyrazol-4-yl)-1H-indol-3-yl)acetamide] | 1000 to 5000
21 | O=C(CCc1cnoc1)Nc1c[nH]c2ccc(-c3cnn(-c4ccc(C(F)(F)F)cc4)c3)cc12 [Compound 139, 3-(isoxazol-4-yl)-N-(5-(1-(4-(trifluoromethyl)phenyl)-1H-pyrazol-4-yl)-1H-indol-3-yl)propanamide] | 200 to 1000
22 | O=C(CCc1cncc(C(F)(F)F)c1)Nc1c[nH]c2cc(F)c(F)cc12 [Compound 119, N-(5,6-difluoro-1H-indol-3-yl)-3-(5-(trifluoromethyl)pyridin-3-yl)propanamide] | 1000 to 5000
23 | Cn1cc(CC(=O)Nc2c[nH]c3ccc(-c4cnn(-c5ccc(C(F)(F)F)cc5)c4)cc23)cn1 [Compound 146, 2-(1-methyl-1H-pyrazol-4-yl)-N-(5-(1-(4-(trifluoromethyl)phenyl)-1H-pyrazol-4-yl)-1H-indol-3-yl)acetamide] | 200 to 1000
24 | COc1ccc(CC(=O)Nc2c[nH]c3cc(F)c(F)cc23)cc1C(F)(F)F [Compound 132, N-(5,6-difluoro-1H-indol-3-yl)-2-(4-methoxy-3-(trifluoromethyl)phenyl)acetamide] | 5000 to 100000
25 | O=C(CCc1ccc(C(F)(F)F)nc1)Nc1c[nH]c2cc(F)c(F)cc12 [Compound 117, N-(5,6-difluoro-1H-indol-3-yl)-3-(6-(trifluoromethyl)pyridin-3-yl)propanamide] | 1000 to 5000
26 | COc1ccc(/C=C(\C)C(=O)Nc2c[nH]c3cc(F)c(F)cc23)cc1 [Compound 110, (E)-N-(5,6-difluoro-1H-indol-3-yl)-3-(4-methoxyphenyl)-2-methylacrylamide] | 200 to 1000
27 | O=C(Nc1c[nH]c2cc(F)c(F)cc12)C1CN(Cc2ccccc2)CCO1 (centres unmarked) [Compound 118, 4-benzyl-N-(5,6-difluoro-1H-indol-3-yl)morpholine-2-carboxamide] | 1000 to 5000
28 | Cc1nnc(CC(=O)Nc2c[nH]c3ccc(-c4cnn(-c5ccc(C(F)(F)F)cc5)c4)cc23)o1 [Compound 138, 2-(5-methyl-1,3,4-oxadiazol-2-yl)-N-(5-(1-(4-(trifluoromethyl)phenyl)-1H-pyrazol-4-yl)-1H-indol-3-yl)acetamide] | 200 to 1000
29 | CC(C)(Oc1ccc(F)cc1)C(=O)Nc1c[nH]c2cc(F)c(F)cc12 [Compound 134, N-(5,6-difluoro-1H-indol-3-yl)-2-(4-fluorophenoxy)-2-methylpropanamide] | 5000 to 100000
30 | C[C@H](C(=O)Nc1c[nH]c2ccc(-c3cnn(-c4ccc(C(F)(F)F)cc4)c3)cc12)N1CCCC1=O [Compound 156, (R)-2-(2-oxopyrrolidin-1-yl)-N-(5-(1-(4-(trifluoromethyl)phenyl)-1H-pyrazol-4-yl)-1H-indol-3-yl)propanamide] | 1000 to 5000
31 | CCOc1cccc(/C=C/C(=O)Nc2c[nH]c3cc(F)c(F)cc23)c1 [Compound 128, (E)-N-(5,6-difluoro-1H-indol-3-yl)-3-(3-ethoxyphenyl)acrylamide] | 200 to 1000
32 | O=C(Cc1nnn[nH]1)Nc1c[nH]c2ccc(-c3cnn(-c4ccc(C(F)(F)F)cc4)c3)cc12 [Compound 141, 2-(1H-tetrazol-5-yl)-N-(5-(1-(4-(trifluoromethyl)phenyl)-1H-pyrazol-4-yl)-1H-indol-3-yl)acetamide] | 5000 to 100000
